US20170176446A1, “Methods for Determining the Oncogenic Condition of Cell, Uses Thereof, and Methods for Treating Cancer” (INSERM (INSTITUT NATIONAL DE LA SANTE ET DE LA RECHERCHE …, priority 2009, published 2017)

Experiments:
NK cell = settings: concentrations between 1 and 20 μM; cited from earlier work
TT cells [1] = experiment: Effect of OCDO on TT tumors implanted in Swiss nude mice; assay type: in vivo
Method: (§1) a) In this example 2, the human medullary thyroid carcinoma cell line TT (American Tissues and Cells Collection) was used. This line is cultured in an F12K medium modified by Kaighn (sold by the company Invitrogen), containing 10% by weight of fetal calf serum and 2.5 ml of a solution of antibiotics (penicillin/streptomycin) at […]. The OCDO tested comes from the company Steraloids. In order to study in vitro the effect of OCDO on cell growth, the TT cells are seeded on to six-well plates (200 000 cells per well) in an F12K medium as defined above. The TT cells are treated every two days either with a solvent (ethanol at 0.1% in PBS phosphate buffer) or with amounts of OCDO in the solvent resulting in concentrations of 0.1, 1, 2.5 or 5 μM. The cells are counted 4 days after seeding. […] At the OCDO concentration of 5 μM, a proliferation induction factor of 1.5 is measured after 4 days of treatment; the induction of proliferation is therefore established in vitro for OCDO concentrations of between 100 nM and 5 μM. […] The animals (5 or 10 mice per group) are monitored regularly in order to measure tumor development. The volume of the tumors is calculated according to the formula L×l^2×0.5, where L is the length and l is the width of the tumor. […]
The animals were euthanized after 75 days of treatment and the tumor and the various organs were removed in order to be analyzed histologically. […]

IL12 = IL12 gene expression in THP1 cells treated with OCDO; assay type: cell-based, human; settings: 10 μM OCDO, 4 hours
Method: (§2) The THP1 cells (human myeloid cell line supplied by ATCC) are cultured with a culture medium of DMEM type (Dulbecco's modified eagle medium) supplemented with 10% of fetal calf serum and a mixture of antibiotics. The THP1 cells are treated with 10 μM of OCDO for 4 hours. The RNAs are extracted according to a conventional procedure. The complementary DNAs are produced, and then used to measure the expression of the genes of interest. The expression of the genes encoding interleukin 12 (IL12) and interleukin 10 (IL10) were studied, these interleukins representing a pair of cytokines with antagonistic properties. IL12 is an immunostimulatory cytokine, whereas IL10 is an immunosuppressive cytokine. The expression ratio of these two cytokines makes it possible to evaluate the immunosuppressor or immunostimulatory potential of the cell and its ability to promote tumor progression or, on the contrary, to slow it down.
(§3) The primers used correspond to the human sequences of IL10 and of IL12 and are the following: […]

[2] = system: phorbol ester-binding protein; settings: cited from earlier work
T lymphocytes = settings: concentrations between 1 and 20 μM; cited from earlier work
leukocyte = settings: concentrations between 1 and 20 μM; cited from earlier work
IL10 = IL10 gene expression in THP1 cells treated with OCDO; assay type: cell-based, human; settings: 10 μM OCDO, 4 hours
Method: as §2, §3

TT cells [3] = experiment: Effect of OCDO on TT cell proliferation in vitro; assay type: cell-based, human; settings: 5 μM OCDO, 4 days of treatment, versus solvent
Method: as §1

[4] = system: T lymphocytes originating from human serum; settings: concentrations between 1 and 20 μM; cited from earlier work
TS/A cells = experiment: Tumor size of TS/A tumors implanted in BALB/c mice, intratumoral treatment; assay type: in vivo; settings: for Tumor size (% control): tamoxifen 10 μM, 100 μl intratumorally once a day
Method: A cell culture of TS/A cells was first performed. These TS/A cells are mouse mammary adenocarcinomas (see Nanni P et al., Clin. Exp. Metastasis, 1983 October-December; 1(4): 373-80). The cells are cultured, at 37° C. under 5% CO2, in a DMEM medium supplemented with 2 g/liter of sodium carbonate, 1.2 mM of glutamine (pH 7.4 at 23° C.), 5% of fetal bovine serum (Gibco) and 2.5 ml of antibiotics per liter of medium (penicillin/streptomycin).
The TS/A cells are recovered with trypsin, washed twice and suspended in PBS buffer. The TS/A cells (approximately 4×10^6 […] cells/0.1 ml) are then injected subcutaneously into the flank of 6-week-old female BALB/c mice (supplied by Charles River). […] The animals (10 mice per group) are monitored regularly for tumor development. The volume of the tumors is calculated according to the following formula: L×l^2×0.5 (L is the length and l is the width of the tumor). The experiment was reproduced twice. The results are given in FIG. 18 (the arrow indicates the beginning of the treatment).

OCDO = OCDO content of TS/A tumors by GC/MS; assay type: in vivo, mice; settings: tamoxifen 10 μM, 100 μl intratumorally once a day
Method: 5 volumes (relative to the mass removed) of buffer (50 mM Tris-HCl, 150 mM KCl, pH=7.4) are added. The tumors are ground and the homogenates are centrifuged for 5 minutes at 2500 rpm at 4° C. […] After centrifugation (to separate the phases), the organic phase is recovered. The organic phase is evaporated to dryness and then the residue is taken up with 0.5 ml of chloroform. The organic extracts are filtered on 0.5 ml silica cartridges. The polar sterols are eluted sequentially:
1) 0.5 ml of a hexane/chloroform mixture (1/1), 2) 0.5 ml of chloroform, 3) 0.5 ml of ethyl acetate and methanol.
The ethyl acetate fractions are evaporated, silylated (50 μl 1/1 acetonitrile/BSTFA) and then analyzed by GC/MS (2 μl) according to the conditions described above.

ChEH [5] = molecular target: T1, ChEH (Mus musculus, UniProt P70245); experiment: Conversion of [14C]CEα in cells of healthy mouse tissues with or without tamoxifen; assay type: cell-based; settings: incubation with tamoxifen
T1 construct: evaluated in cells of various healthy mouse tissues; from tissue; host or cells: cells from various healthy mouse organs
T1 sequence (P70245 whole entry): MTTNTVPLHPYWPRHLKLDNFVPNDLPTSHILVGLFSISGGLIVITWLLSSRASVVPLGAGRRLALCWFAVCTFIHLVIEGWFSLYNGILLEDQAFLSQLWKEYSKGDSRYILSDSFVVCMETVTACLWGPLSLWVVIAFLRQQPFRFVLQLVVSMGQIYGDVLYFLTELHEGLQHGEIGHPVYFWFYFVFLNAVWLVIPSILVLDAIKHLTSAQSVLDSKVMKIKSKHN

MCF7 cells = experiment: OCDO production by MCF7 cells incubated with [14C]CE, thin-layer chromatography; assay type: cell-based, human
Source text: For assays 1 to 5 and in some of the examples given later in this patent application, MCF7 tumor cells, which originate from the American Tissue Culture Collection (ATCC), were used. […] It is desired to study the activity of ChEH in […] cells by silica thin-layer chromatography. The compounds that it is desired to visualize are the CE and CT compounds defined above. In order to visualize the spots corresponding to CE and CT on a chromatography plate, ^14C-labeled CE and CT compounds were synthesized.
In order to be used in assays 1 to 5 which follow, the cells are seeded into 6-well plates at a density of 80 000 cells in a volume of 2 ml. […] After the incubation time desired for the assay, the medium is collected, the cells are washed with cold PBS (phosphate buffer) (2 ml per well) which is pooled with the medium. The cells are then scraped into cold PBS (1 ml for 3 wells); the wells are again rinsed with cold PBS (1 ml for 3 wells). The cell suspension obtained is centrifuged at 1000 rpm for 5 min at 4° C. […] Throughout the rest of this description, the vehicle solvent used is the same as that defined above.
The aqueous and organic radioactivities are counted. The organic phases are brought to dryness under argon. The residue is resuspended in 60 μl of ethanol and then deposited, in a proportion of 20 μl per lane, on to the glass-backed silica plates (Whatman LK-6-DF, 20×20), which are used in the various assays (these plates having been preheated at 100° C. for 1 hour). The migration solvent used is ethyl acetate. The chromatography plates are placed in contact with a “phosphor-screen” plate in a cassette overnight. […] In order to evaluate the more or less dense nature of the spots obtained on the plates, the radioactivity is quantified by densitometry with the “Imagequant”™ computer program.
Generally, in order to establish the percentages of OCDO inhibition from the thin-layer chromatography (TLC) plates obtained as in assay 2, the radioactive metabolites are identified and quantified on the basis of said plates using a europium-sensitive plate of GP Phosphor screen type (GE Healthcare) and a Storm 840 phosphorimagor (GE Healthcare). The proportion of radiolabeled oxysterols is determined on the autoradiogram obtained by densitometry using the Image Quant 5.2 software. The percentage is calculated on the basis of the ratio between the amount of oxysterols quantified divided by the sum of the amounts of oxysterols (CEE+CE+CT+OCDO). Since the CEE (CE ester) originates exclusively from the CE, the percentage CE is calculated on the basis of the ratio (CE+CEE)/(CE+CEE+CT+OCDO).
Assay 2 given above was therefore completed by measuring the amounts of the products present when the MCF7 tumor cells are incubated as indicated in detail in assay 2.
In order to establish that the link that exists between, on the one hand, the ability of various compounds to inhibit OCDO in an MCF7 tumor cell and, on the other hand, their quality as a ChEH inhibitor, is well-founded, the inhibition coefficients Ki for ChEH relating to a certain number of products was calculated and the production of OCDO by MCF7 cells after incubation of the cells with the same products was measured according to the protocol defined in assay 2 of the present patent application.

ChEH [6] = molecular target: T2, ChEH (Homo sapiens, UniProt Q15125); experiment: Inhibition of ChEH activity in MCF7 cells (TLC of [14C]CE conversion); assay type: cell-based; settings: tamoxifen 0.01-5 μM with [14C]CEα; PBPE 0.01-10 μM with [14C]CEβ
T2 construct: MCF7 tumor cells, which originate from the American Tissue Culture Collection (ATCC), were used; host or cells: MCF7
T2 sequence (Q15125 whole entry): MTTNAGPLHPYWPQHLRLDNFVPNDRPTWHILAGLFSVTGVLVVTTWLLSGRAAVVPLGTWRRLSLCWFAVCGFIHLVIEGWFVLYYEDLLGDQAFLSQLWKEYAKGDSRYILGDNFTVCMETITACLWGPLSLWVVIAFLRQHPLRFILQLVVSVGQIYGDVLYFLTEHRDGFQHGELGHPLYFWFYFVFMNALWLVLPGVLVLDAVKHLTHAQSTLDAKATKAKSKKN
Method: For this experiment, an aminoalkyl sterol included in French patent 2 838 741 (and also see: de Medina et al., J Med Chem: 2009, vol. 52, No. 23, p. 7765-7777), having the formula: 6-N-[2-(3H-imidazol-4-yl)ethylamino]cholestane-3β,5α-diol (DDA), was chosen. […]
A thin-layer chromatography was carried out, the plate of which has been reproduced in FIG. 23. On this plate, the incubation is carried out, for lane 1, with [^14C]CE; for lane 2, with [^14C]CT; for lane 3, with the vehicle solvent, which is the same as that used for assays 1 to 5; for lane 4, with [14C]CE and 0.1 μM of the aminoalkyl sterol; and for lane 5, with [^14C]CE and a concentration of 1 μM of the aminoalkyl sterol.

In the case of `CC(C)CCC[C@@H](C)[C@H]1CC[C@H]2[C@@H]3CC(=O)[C@@]4(O)C[C@@H](O)CC[C@]4(C)[C@H]3CC[C@]12C` [OCDO, 6-oxo-cholestane-3β,5α-diol], the “NK cell toxicity in mice” value (NK cell) is given as “induce NK cell toxicity”, the “tumor volume versus control animals treated with the solvent” value (TT cells [1]; OCDO 50 μg/kg subcutaneously once a day, 5 days out of 7) is given as “almost three times larger” and the “invasion of the lymph nodes versus solvent” value (TT cells [1]; OCDO 50 μg/kg, after 75 days of treatment) is given as “Twice as much invasion of the lymph nodes”. For the same compound, the “expression of the cytokine IL12” value (IL12) was “reduces the expression”, the “binding to a phorbol ester-binding protein” value [2] was “binds to a phorbol ester-binding protein” and the “cytolytic activity produced by T lymphocytes in mice” value (T lymphocytes) was “inhibit the cytolytic activity produced by T lymphocytes”. For the same compound, the leukocyte mobility (leukocyte) was “inhibit leukocyte mobility”, the “expression of the immunosuppressive cytokine IL10” value (IL10) was “stimulates the expression” and the proliferation induction factor (TT cells [3]) was 1.5. The “rosette formation by T lymphocytes” value [4] was “inhibit rosette formation by T lymphocytes”.

With `CC/C(=C(\c1ccccc1)c1ccc(OCCN(C)C)cc1)c1ccccc1` [Tamoxifen, 2-[4-[(Z)-1,2-di(phenyl)but-1-enyl]phenoxy]-N,N-dimethylethanamine] the “Tumor size (% control)” value (TS/A cells; Day 28) was 73.5 ± 8 % control, the “Tumor size (% control)” value (TS/A cells; Day 37) was 46.2 ± 7 % control and the tumor mass (TS/A cells; tumor removed on day 28 from one treated animal, control animal tumor 2 g) was 1.45 g. For the same compound, the “OCDO (% control)” value (OCDO; Day 28) was 19.2 ± 4 % control, the “OCDO (% control)” value (OCDO; Day 37) was 8.4 ± 4 % control and the “formation of CT from [14C]CEα in healthy mouse tissue cells” value (ChEH [5]) was “the CT compound no longer appears”. The “% OCDO” value (MCF7 cells; MCF7 cells, [14C]CEα, three days, concentration given with each compound, share of labeled oxysterols) was 6.9%, the “OCDO production by MCF-7 (% control)” value (MCF7 cells; concentration in μM in parentheses after each molecule, control = 100) was under 1 % control and the “inhibition of the ChEH activity (3 days) in MCF7 cells” value (ChEH [6]) was “Dose-dependent inhibition”.
